Several values for one entry are separate records, joined by “and”; a condition that tells them apart may be missing. Identical values can stand only once. Records with an inconclusive call do not appear. Starred links: 1 amine or outer side, 2 acyl side, 3 side chain; linkers in the order of their positions; H or OH if unused. Positions of bridges follow the written chain, without caps; N, C: chain ends. Non-standard residues stand in square brackets, D forms with d. Residues, ends and D or L forms follow the SMILES beside them. Chains are numbered I, II in the order given. Actinocin(9to1) = Cc1c2oc3c(C)ccc(C(=O)[*:1])c3nc-2c(C(=O)[*:2])c(N)c1=O; aThr = C[C@H](O)[C@H](N)C(=O)O; NMeV = CN[C@H](C(=O)O)C(C)C; Sar = CNCC(=O)O
Tested on: CD8F1 mice, subcutaneous mammary adenocarcinoma, T/C%
Test: NCI In Vivo Anticancer Drug Screen. Data for tumor model Mammary Adenocarcinoma CD8F1 (subcutaneous) in CD8F1
Details: higher = larger tumour
In short: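 Transplantable tumors were established in mice, animals were dosed with compound or vehicle, and survival or tumor size was then measured in both groups. The treated result was divided by the control result.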

[1] = endpoint: median tumor weight (est.), dose: 2.0 mg/kg/injection, schedule: Q07DX005 (ip), vehicle: saline
[2] = endpoint: median tumor weight (est.), dose: 32.0 mg/kg/injection, schedule: Q07DX005 (ip), vehicle: saline
[3] = endpoint: median tumor weight (est.), dose: 12.5 mg/kg/injection, schedule: Q07DX005 (ip), vehicle: Klucel (hydroxypropylcellulose) (HPC)
[4] = endpoint: median tumor weight (est.), dose: 25.0 mg/kg/injection, schedule: Q07DX005 (ip), vehicle: Klucel (hydroxypropylcellulose) (HPC)
[5] = endpoint: median tumor weight (est.), dose: 50.0 mg/kg/injection, schedule: Q07DX005 (ip), vehicle: Klucel (hydroxypropylcellulose) (HPC)
[6] = endpoint: median tumor weight (est.), dose: 100.0 mg/kg/injection, schedule: Q07DX005 (ip), vehicle: Klucel (hydroxypropylcellulose) (HPC)

`O=C(O)CCCc1ccc(N(CCCl)CCCl)cc1` was tested, and the T/C [1] was 234 % of control and 83 % of control, the T/C (endpoint: median tumor weight (est.), dose: 4.0 mg/kg/injection, schedule: Q07DX005 (ip), vehicle: saline with Tween-80) was 77 % of control and the T/C (endpoint: median tumor weight (est.), dose: 7.5 mg/kg/injection, schedule: Q07DX005 (ip), vehicle: Klucel (hydroxypropylcellulose) (HPC)) was 88 % of control. For the same compound, the T/C (endpoint: median tumor weight (est.), dose: 8.0 mg/kg/injection, schedule: Q07DX005 (ip), vehicle: saline with Tween-80) was 46 % of control, the T/C (endpoint: median tumor weight (est.), dose: 15.0 mg/kg/injection, schedule: Q07DX005 (ip), vehicle: Klucel (hydroxypropylcellulose) (HPC)) was 26 % of control and the T/C (endpoint: median tumor weight (est.), dose: 16.0 mg/kg/injection, schedule: Q07DX005 (ip), vehicle: saline with Tween-80) was 43 % of control. The T/C (endpoint: median tumor weight (est.), dose: 30.0 mg/kg/injection, schedule: Q07DX005 (ip), vehicle: Klucel (hydroxypropylcellulose) (HPC)) was 22 % of control, the T/C (endpoint: median tumor weight (est.), dose: 32.0 mg/kg/injection, schedule: Q07DX005 (ip), vehicle: saline with Tween-80) was 16 % of control and the T/C [2] was 3 % of control and 14 % of control. The T/C (endpoint: median tumor weight change, dose: 16.0 mg/kg/injection, schedule: Q01DX001 (ip), vehicle: saline with Tween-80) was 57 % of control, the T/C (endpoint: median tumor weight change, dose: 32.0 mg/kg/injection, schedule: Q01DX001 (ip), vehicle: saline with Tween-80) was 62 % of control and the T/C (endpoint: median tumor weight change, dose: 64.0 mg/kg/injection, schedule: Q01DX001 (ip), vehicle: saline with Tween-80) was 38 % of control.

In the case of `C=C/C(C)=C/[C@H](C)C(=O)C[C@H](O)CC1CC(=O)NC(=O)C1`, the T/C (endpoint: median tumor weight (est.), dose: 6.25 mg/kg/injection, schedule: Q07DX005 (ip), vehicle: saline with Tween-80) is reported as 41 % of control, the T/C (endpoint: median tumor weight (est.), dose: 12.5 mg/kg/injection, schedule: Q07DX005 (ip), vehicle: saline with Tween-80) is reported as 62 % of control and the T/C (endpoint: median tumor weight (est.), dose: 100.0 mg/kg/injection, schedule: Q07DX005 (ip), vehicle: saline with Tween-80) is reported as 157 % of control. The T/C (endpoint: median tumor weight (est.), dose: 200.0 mg/kg/injection, schedule: Q07DX005 (ip), vehicle: saline with Tween-80) was 50 % of control.

With `Nc1nc2n[nH]nc2c(=O)[nH]1` the T/C (endpoint: median tumor weight change, dose: 250.0 mg/kg/injection, schedule: Q01DX001 (ip), vehicle: suspension in saline) was 73 % of control and the T/C (endpoint: median tumor weight change, dose: 500.0 mg/kg/injection, schedule: Q01DX001 (ip), vehicle: suspension in saline) was 45 % of control.

For `CC(=O)[O][Pb]([O]C(C)=O)([c]1ccccc1)[c]1ccccc1`, the T/C [3] was 124 % of control, the T/C [4] was 80 % of control and the T/C [5] was 65 % of control. The T/C [6] was 86 % of control, the T/C (endpoint: median tumor weight (est.), dose: 200.0 mg/kg/injection, schedule: Q07DX005 (ip), vehicle: Klucel (hydroxypropylcellulose) (HPC)) was 75 % of control and the T/C (endpoint: median tumor weight (est.), dose: 400.0 mg/kg/injection, schedule: Q07DX005 (ip), vehicle: Klucel (hydroxypropylcellulose) (HPC)) was 29 % of control.

`COC1CC(C)C(OC)C2=CC(=O)C=C(NC(=O)/C(C)=C/C=C\C(C)C(OC(N)=O)/C(C)=C\C(C)C1OC)C2=O` (stereo not drawn) was tested, and the T/C (endpoint: median tumor weight change, dose: 6.25 mg/kg/injection, schedule: Q01DX001 (ip), vehicle: saline + alcohol) was 152 % of control, the T/C (endpoint: median tumor weight change, dose: 12.5 mg/kg/injection, schedule: Q01DX001 (ip), vehicle: saline + alcohol) was 91 % of control and the T/C (endpoint: median tumor weight change, dose: 25.0 mg/kg/injection, schedule: Q01DX001 (ip), vehicle: saline + alcohol) was 72 % of control.

In the case of `Cc1c2oc3c(C)ccc(C(=O)N[C@@H]4C(=O)N[C@H](C(C)C)C(=O)N5CCC[C@H]5C(=O)N(C)CC(=O)N(C)[C@@H](C(C)C)C(=O)O[C@H]4C)c3nc-2c(C(=O)N[C@@H]2C(=O)N[C@H](C(C)C)C(=O)N3CCC[C@H]3C(=O)N(C)CC(=O)N(C)[C@@H](C(C)C)C(=O)O[C@H]2C)c(N)c1=O` (I: [aThr][dV]P[Sar][NMeV] / II: [aThr][dV]P[Sar][NMeV]; ester I:1-I:C, II:1-II:C; linker I:N-II:N via Actinocin(9to1)), the T/C (endpoint: mean tumor weight, dose: 0.02 mg/kg/injection, schedule: Q01DX009 (ip), vehicle: saline) is reported as 98 % of control, the T/C (endpoint: mean tumor weight, dose: 0.03 mg/kg/injection, schedule: Q01DX009 (ip), vehicle: saline + alcohol) is reported as 73 % of control and the T/C (endpoint: mean tumor weight, dose: 0.04 mg/kg/injection, schedule: Q01DX009 (ip), vehicle: saline + alcohol) is reported as 65 % of control. The T/C (endpoint: mean tumor weight, dose: 0.04 mg/kg/injection, schedule: Q01DX009 (ip), vehicle: saline) was 28 % of control, the T/C (endpoint: mean tumor weight, dose: 0.1 mg/kg/injection, schedule: Q07DX007 (ip), vehicle: saline) was 36 % of control and the T/C (endpoint: mean tumor weight, dose: 0.2 mg/kg/injection, schedule: Q07DX007 (ip), vehicle: saline) was 5 % of control. For the same compound, the T/C (endpoint: median tumor weight (est.), dose: 0.03 mg/kg/injection, schedule: Q07DX005 (ip), vehicle: saline) was 56 % of control, the T/C (endpoint: median tumor weight (est.), dose: 0.15 mg/kg/injection, schedule: Q07DX005 (ip), vehicle: saline) was 34 % of control and 49 % of control and the T/C (endpoint: median tumor weight (est.), dose: 0.3 mg/kg/injection, schedule: Q07DX005 (ip), vehicle: saline) was 24 % of control. The T/C (endpoint: median tumor weight (est.), dose: 12.5 micrograms/kg/injection, schedule: Q07DX005 (ip), vehicle: saline) was 66 % of control, the T/C (endpoint: median tumor weight (est.), dose: 25.0 micrograms/kg/injection, schedule: Q07DX005 (ip), vehicle: saline) was 60 % of control and the T/C (endpoint: median tumor weight (est.), dose: 50.0 micrograms/kg/injection, schedule: Q07DX005 (ip), vehicle: saline) was 70 % of control. For the same compound, the T/C (endpoint: median tumor weight (est.), dose: 100.0 micrograms/kg/injection, schedule: Q07DX005 (ip), vehicle: saline) was 38 % of control, the T/C (endpoint: median tumor weight (est.), dose: 200.0 micrograms/kg/injection, schedule: Q07DX005 (ip), vehicle: saline) was 9 % of control and the T/C (endpoint: median tumor weight change, dose: 0.12 mg/kg/injection, schedule: Q01DX001 (ip), vehicle: saline) was 55 % of control. The T/C (endpoint: median tumor weight change, dose: 0.25 mg/kg/injection, schedule: Q01DX001 (ip), vehicle: saline) was 30 % of control and 39 % of control and the T/C (endpoint: median tumor weight change, dose: 0.5 mg/kg/injection, schedule: Q01DX001 (ip), vehicle: saline) was 7 % of control and 27 % of control.

With `Clc1ccc(C(c2ccccc2Cl)C(Cl)Cl)cc1` (stereo not drawn) the T/C [3] was 124 % of control, the T/C [4] was 118 % of control and the T/C [5] was 175 % of control. The T/C [6] was 92 % of control.

In the case of `C[N+](C)(C)c1ncnc2nc[nH]c12`, the T/C (endpoint: median tumor weight (est.), dose: 25.0 mg/kg/injection, schedule: Q07DX005 (ip), vehicle: saline) is reported as 194 % of control, the T/C (endpoint: median tumor weight (est.), dose: 100.0 mg/kg/injection, schedule: Q07DX005 (ip), vehicle: saline) is reported as 259 % of control and the T/C (endpoint: median tumor weight (est.), dose: 200.0 mg/kg/injection, schedule: Q07DX005 (ip), vehicle: saline) is reported as 186 % of control.

For `CCCCCCCCCCCCCCCCCCOCC(COP(=O)([O-])OCC[N+](C)(C)C)OC` (stereo not drawn), the T/C (endpoint: median tumor weight change, dose: 1.95 mg/kg/injection, schedule: Q01DX001 (ip), vehicle: saline) was 97 % of control, the T/C (endpoint: median tumor weight change, dose: 3.9 mg/kg/injection, schedule: Q01DX001 (ip), vehicle: saline) was 67 % of control and the T/C (endpoint: median tumor weight change, dose: 7.8 mg/kg/injection, schedule: Q01DX001 (ip), vehicle: saline) was 95 % of control. The T/C (endpoint: median tumor weight change, dose: 15.62 mg/kg/injection, schedule: Q01DX001 (ip), vehicle: saline) was 48 % of control, the T/C (endpoint: median tumor weight change, dose: 31.0 mg/kg/injection, schedule: Q01DX001 (ip), vehicle: suspension in saline) was 79 % of control and the T/C (endpoint: median tumor weight change, dose: 31.25 mg/kg/injection, schedule: Q01DX001 (ip), vehicle: saline) was 100 % of control. The T/C (endpoint: median tumor weight change, dose: 62.0 mg/kg/injection, schedule: Q01DX001 (ip), vehicle: suspension in saline) was 75 % of control.

In the case of `Cc1c(N)nc([C@H](CC(N)=O)NC[C@H](N)C(N)=O)nc1C(=O)N[C@H](C(=O)N[C@H](C)[C@@H](O)[C@H](C)C(=O)N[C@H](C(=O)NCCc1nc(-c2nc(C(=O)NCCC[S+](C)C)cs2)cs1)[C@@H](C)O)C(OC1OC(CO)C(O)C(O)C1OC1OC(CO)C(O)C(OC(N)=O)C1O)c1cnc[nH]1` (stereo partly drawn), the T/C (endpoint: median tumor weight (est.), dose: 1.0 mg/kg/injection, schedule: Q07DX006 (ip), vehicle: saline) is reported as 93 % of control, the T/C [1] is reported as 25 % of control and the T/C (endpoint: median tumor weight (est.), dose: 2.0 mg/kg/injection, schedule: Q07DX006 (ip), vehicle: saline) is reported as 100 % of control. For the same compound, the T/C (endpoint: median tumor weight (est.), dose: 8.0 mg/kg/injection, schedule: Q07DX006 (ip), vehicle: saline) was 55 % of control, the T/C (endpoint: median tumor weight (est.), dose: 16.0 mg/kg/injection, schedule: Q07DX005 (ip), vehicle: saline) was 10 % of control and 13 % of control and 23 % of control and the T/C (endpoint: median tumor weight (est.), dose: 16.0 mg/kg/injection, schedule: Q07DX006 (ip), vehicle: saline) was 61 % of control. The T/C [2] was 6 % of control and 7 % of control, the T/C (endpoint: median tumor weight (est.), dose: 32.0 mg/kg/injection, schedule: Q07DX006 (ip), vehicle: saline) was 8 % of control and the T/C (endpoint: median tumor weight (est.), dose: 64.0 mg/kg/injection, schedule: Q07DX005 (ip), vehicle: saline) was 2 % of control. For the same compound, the T/C (endpoint: median tumor weight change, dose: 4.0 mg/kg/injection, schedule: Q01DX001 (ip), vehicle: saline) was 124 % of control.

With `COC1=C(C)C(=O)C2=C(C1=O)C1C3CC4=C(C(=O)C(OC)=C(C)C4=O)C(CNC(=O)C(C)=O)N3C(C#N)C(C2)N1C` (stereo not drawn) the T/C (endpoint: median tumor weight change, dose: 0.62 mg/kg/injection, schedule: Q01DX001 (ip), vehicle: Klucel (hydroxypropylcellulose) (HPC)) was 114 % of control, the T/C (endpoint: median tumor weight change, dose: 0.63 mg/kg/injection, schedule: Q01DX001 (ip), vehicle: Klucel (hydroxypropylcellulose) (HPC)) was 119 % of control and the T/C (endpoint: median tumor weight change, dose: 1.2 mg/kg/injection, schedule: Q01DX001 (ip), vehicle: Klucel (hydroxypropylcellulose) (HPC)) was 109 % of control. For the same compound, the T/C (endpoint: median tumor weight change, dose: 1.25 mg/kg/injection, schedule: Q01DX001 (ip), vehicle: Klucel (hydroxypropylcellulose) (HPC)) was 96 % of control and the T/C (endpoint: median tumor weight change, dose: 2.5 mg/kg/injection, schedule: Q01DX001 (ip), vehicle: Klucel (hydroxypropylcellulose) (HPC)) was 98 % of control and 114 % of control.

Source: PubChem BioAssay AID220 (DTP/NCI, 2004)
